Data: patent US10517889B2, “Modulators of SMAD7 expression” (Ionis Pharmaceuticals, Inc., priority 2017, dated 2019)
Strand notation (5' to 3'): a small letter for the sugar, then the base; units joined by * are phosphorothioate-linked, units joined directly phosphodiester-linked; [ ] holds rarer units or linkages, { } end groups; capitals alone tell only the bases. e = 2'-O-(2-methoxyethyl) (MOE); [5mC] = 5-methylcytosine; d = 2'-deoxy (DNA)

Tested on: human SMAD7 mRNA
Test: Antisense inhibition of human SMAD7 mRNA expression in Hep3B cells by 5-10-5 MOE gapmers, single concentration, electroporation, RT-PCR (Example 1, Study 1 and 2)
Assay type: cell-based
Conditions: for % Inhibition: Study 2, electroporation with 15,000 nM antisense oligonucleotide; for % Inhibition of SMAD7 mRNA: electroporation with 15,000 nM antisense oligonucleotide (Study 2)
Outline: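 Hep3B cells (20,000/well) electroporated with 5-10-5 MOE gapmer at 5,000 nM or 15,000 nM for approximately 24 h. SMAD7 mRNA quantified by real-time PCR with primer probe set RTS5062 and normalized to RIBOGREEN total RNA. Values are percent inhibition relative to untreated controls.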

[1] = 5-10-5 MOE gapmers targeting SEQ ID NO: 1 and 2
[2] = electroporation, 15,000 nM, approximately 24 hours, relative to untreated control cells, gapmers targeting SEQ ID NO: 1 and 2
[3] = electroporation, 15,000 nM antisense oligonucleotide (Study 2), 5-10-5 MOE gapmers targeting SEQ ID NO: 1 and 2
[4] = electroporation, 5,000 nM, approximately 24 hours, relative to untreated control cells, gapmers targeting SEQ ID NO: 1 and 2

Substance	% Inhibition [1]	% inhibition of SMAD7 mRNA expression [3]	also measured
771724 (antisense e[5mC]*e[5mC]*eT*eT*e[5mC]*dT*d[5mC]*d[5mC]*d[5mC]*dA*dG*dA*dA*d[5mC]*d[5mC]*eT*eT*eG*eG*e[5mC]) [compound 771724]	27%	–	–
771725 (antisense e[5mC]*eT*eT*eG*eA*dG*dG*dG*dA*dG*d[5mC]*dT*dG*dG*dT*eA*eG*eA*eG*eT) [compound 771725]	–	–	% inhibition of SMAD7 mRNA expression [2]: 8%
771726 (antisense eA*eG*e[5mC]*e[5mC]*eA*dA*dA*dA*d[5mC]*d[5mC]*d[5mC]*dA*dG*dT*d[5mC]*eA*eA*eG*eT*eT) [compound 771726]	19%	–	–
771727 (antisense eA*eA*e[5mC]*eA*eT*dG*dG*d[5mC]*d[5mC]*dT*dT*dT*d[5mC]*dT*dT*eT*eT*e[5mC]*eT*eA) [compound 771727]	0%	–	–
771728 (antisense eA*eA*e[5mC]*eT*eT*dT*dT*d[5mC]*dT*d[5mC]*d[5mC]*d[5mC]*d[5mC]*d[5mC]*dT*eT*eG*eG*eA*eA) [compound 771728]	–	1%	% Inhibition of SMAD7 mRNA [1]: 7%
771729 (antisense eT*eG*e[5mC]*eT*e[5mC]*d[5mC]*dA*dG*d[5mC]*dT*d[5mC]*d[5mC]*dA*dG*dA*e[5mC]*e[5mC]*eT*eG*eG) [compound 771729]	–	35%	–
771730 (antisense eA*eA*eT*eG*e[5mC]*d[5mC]*d[5mC]*d[5mC]*d[5mC]*dG*dG*d[5mC]*d[5mC]*dA*d[5mC]*eA*eG*e[5mC]*eA*eG) [compound 771730]	–	27%	–
771731 (antisense eA*eA*eA*eA*e[5mC]*dT*dT*dT*dG*dT*dG*d[5mC]*d[5mC]*dT*dG*eT*eT*eT*e[5mC]*eA) [compound 771731]	54%	–	% inhibition of SMAD7 mRNA expression [4]: 44%
771735 (antisense eT*eG*eG*eG*eT*d[5mC]*d[5mC]*d[5mC]*dT*d[5mC]*dA*dA*dG*dA*dG*e[5mC]*eT*e[5mC]*eA*e[5mC]) [compound 771735]	38%	–	–
771736 (antisense eT*eG*e[5mC]*e[5mC]*eA*dG*dA*dT*d[5mC]*dT*d[5mC]*dA*dG*dG*dT*e[5mC]*eA*eA*eG*eA) [compound 771736]	–	0%	% Inhibition of SMAD7 mRNA [1]: 34%
771738 (antisense eG*eA*eG*e[5mC]*eT*dT*d[5mC]*d[5mC]*dT*dA*dA*dG*dT*dA*d[5mC]*eT*eG*eT*eT*eA) [compound 771738]	–	14%	–
771739 (antisense eT*eT*eT*eG*eA*dA*dA*dA*d[5mC]*d[5mC]*d[5mC]*dA*dA*d[5mC]*d[5mC]*e[5mC]*eT*eG*eG*eG) [compound 771739]	33%	–	% inhibition of SMAD7 mRNA expression [4]: 22%
771740 (antisense eG*e[5mC]*e[5mC]*eA*e[5mC]*dT*d[5mC]*d[5mC]*dT*dG*dA*d[5mC]*dT*d[5mC]*dA*e[5mC]*eG*e[5mC]*eA*eA) [compound 771740]	20%	–	–
771741 (antisense eG*eG*eT*e[5mC]*eT*d[5mC]*dA*d[5mC]*d[5mC]*dT*dT*dA*dG*dG*d[5mC]*e[5mC]*eT*eG*eT*eG) [compound 771741]	–	–	% inhibition of SMAD7 mRNA expression [2]: 53%
771743 (antisense eG*e[5mC]*e[5mC]*eA*eT*dA*d[5mC]*d[5mC]*dT*d[5mC]*d[5mC]*dA*dT*d[5mC]*dT*e[5mC]*eT*e[5mC]*eA*e[5mC]) [compound 771743]	0%	–	–
771744 (antisense eG*eG*e[5mC]*eT*eA*dT*dT*d[5mC]*d[5mC]*d[5mC]*dA*dA*dG*dA*dG*eT*e[5mC]*e[5mC]*eA*eG) [compound 771744]	–	23%	% Inhibition of SMAD7 mRNA [1]: 40%
771745 (antisense eG*eT*eG*eA*eA*dG*dA*dA*dG*d[5mC]*dA*dA*dA*dG*dT*eA*eT*eA*e[5mC]*e[5mC]) [compound 771745]	–	24%	–
771746 (antisense eA*eA*eG*e[5mC]*e[5mC]*dG*dG*dG*d[5mC]*dA*dT*d[5mC]*dT*d[5mC]*dA*eG*eA*eG*e[5mC]*eA) [compound 771746]	–	22%	–
771747 (antisense eG*eT*eG*eT*eG*dT*dT*dT*d[5mC]*dA*dA*dA*dG*dG*dA*eA*eA*eA*eG*e[5mC]) [compound 771747]	10%	–	% inhibition of SMAD7 mRNA expression [4]: 2%
771748 (antisense eA*e[5mC]*e[5mC]*e[5mC]*e[5mC]*d[5mC]*dA*d[5mC]*dA*dT*dT*dA*dA*dA*d[5mC]*eA*eT*eA*eA*eT) [compound 771748]	0%	–	–
771749 (antisense eG*eA*eA*eA*eT*dG*dG*dA*dG*dT*dT*dA*d[5mC]*dT*dT*eG*eT*eT*eA*eA) [compound 771749]	–	–	% inhibition of SMAD7 mRNA expression [2]: 29%

Substance	% Inhibition [1]	% inhibition of SMAD7 mRNA expression [3]	also measured
771750 (antisense eG*eG*eA*e[5mC]*eA*dA*d[5mC]*dT*dT*dT*dT*d[5mC]*dA*dA*dG*eA*eA*e[5mC]*eT*e[5mC]) [compound 771750]	29%	–	–
771751 (antisense eT*eG*eG*e[5mC]*e[5mC]*dA*dT*dG*d[5mC]*dT*dG*dG*d[5mC]*dA*dA*eA*eT*eA*eG*eG) [compound 771751]	25%	–	–
771752 (antisense eA*eA*eT*eG*eT*d[5mC]*d[5mC]*d[5mC]*dT*dG*dT*dG*dG*dG*dT*eT*eT*e[5mC]*e[5mC]*eA) [compound 771752]	–	0%	% Inhibition of SMAD7 mRNA [1]: 3%
771753 (antisense eG*eT*e[5mC]*e[5mC]*eA*dT*dG*dA*dA*d[5mC]*d[5mC]*dA*d[5mC]*dA*dA*e[5mC]*eT*e[5mC]*eA*eT) [compound 771753]	–	50%	–
771754 (antisense e[5mC]*e[5mC]*e[5mC]*eT*e[5mC]*dA*dG*dG*dT*dA*d[5mC]*dT*d[5mC]*dT*dG*e[5mC]*eA*e[5mC]*eA*eG) [compound 771754]	–	45%	–
771755 (antisense eA*eA*eA*e[5mC]*eA*dT*dT*dT*dG*dG*d[5mC]*dA*d[5mC]*d[5mC]*d[5mC]*eA*eA*e[5mC]*eA*e[5mC]) [compound 771755]	35%	–	% inhibition of SMAD7 mRNA expression [4]: 44%
771756 (antisense e[5mC]*e[5mC]*eA*eG*eG*d[5mC]*dA*dA*d[5mC]*d[5mC]*d[5mC]*d[5mC]*dA*dG*dA*e[5mC]*e[5mC]*eT*eG*e[5mC]) [compound 771756]	11%	–	–
771757 (antisense eT*e[5mC]*e[5mC]*e[5mC]*e[5mC]*dT*dT*dT*dT*dT*dT*dA*dA*dT*dT*eG*eA*eG*eG*eA) [compound 771757]	–	–	% inhibition of SMAD7 mRNA expression [2]: 48%
771758 (antisense eA*eT*eT*eA*e[5mC]*d[5mC]*dA*dG*dT*d[5mC]*d[5mC]*d[5mC]*d[5mC]*d[5mC]*dA*eT*eT*eA*e[5mC]*eG) [compound 771758]	0%	–	–
771759 (antisense eG*e[5mC]*eA*eT*eT*dA*d[5mC]*d[5mC]*dA*dG*dT*d[5mC]*d[5mC]*d[5mC]*d[5mC]*e[5mC]*eA*eT*eT*eA) [compound 771759]	26%	–	–
771760 (antisense eA*eT*e[5mC]*eT*eT*dA*d[5mC]*d[5mC]*dT*dG*dA*dA*dA*dG*d[5mC]*e[5mC]*e[5mC]*e[5mC]*e[5mC]*e[5mC]) [compound 771760]	–	3%	% Inhibition of SMAD7 mRNA [1]: 25%
771761 (antisense e[5mC]*e[5mC]*e[5mC]*e[5mC]*eA*dT*dT*d[5mC]*d[5mC]*dT*d[5mC]*d[5mC]*dA*dG*dT*e[5mC]*eT*eT*eT*eA) [compound 771761]	–	33%	–
771763 (antisense e[5mC]*e[5mC]*e[5mC]*e[5mC]*eG*dT*d[5mC]*d[5mC]*dA*d[5mC]*dG*dG*dA*dA*d[5mC]*eG*eG*eA*eT*e[5mC]) [compound 771763]	45%	–	% inhibition of SMAD7 mRNA expression [4]: 34%
771764 (antisense eA*e[5mC]*eA*e[5mC]*eT*dT*d[5mC]*dA*d[5mC]*dA*d[5mC]*dA*d[5mC]*d[5mC]*dA*eA*eA*eG*e[5mC]*eA) [compound 771764]	20%	–	–
771765 (antisense e[5mC]*e[5mC]*eA*eA*eG*d[5mC]*d[5mC]*dA*dG*dG*dA*dG*d[5mC]*dT*dG*e[5mC]*eT*eT*eA*eA) [compound 771765]	–	–	% inhibition of SMAD7 mRNA expression [2]: 48%
771766 (antisense e[5mC]*eT*eG*eA*eA*dG*d[5mC]*d[5mC]*d[5mC]*d[5mC]*d[5mC]*d[5mC]*dA*dA*dG*e[5mC]*e[5mC]*eA*eG*eG) [compound 771766]	5%	–	–
771767 (antisense e[5mC]*e[5mC]*eT*eA*eA*dA*dG*dG*dT*dG*dG*dG*dT*d[5mC]*d[5mC]*eA*eT*eT*e[5mC]*e[5mC]) [compound 771767]	16%	–	–
771768 (antisense eG*eT*eA*eT*eG*d[5mC]*dT*dT*dG*dG*dG*dA*dT*d[5mC]*dT*eG*eT*e[5mC]*eT*eT) [compound 771768]	–	11%	% Inhibition of SMAD7 mRNA [1]: 24%
771771 (antisense e[5mC]*eA*eG*e[5mC]*eT*d[5mC]*d[5mC]*dT*dA*d[5mC]*dT*dG*dT*dT*dG*eG*e[5mC]*eA*eG*eT) [compound 771771]	22%	–	% inhibition of SMAD7 mRNA expression [4]: 63%
771772 (antisense eT*e[5mC]*e[5mC]*eT*e[5mC]*dA*dG*dG*dA*dA*d[5mC]*dA*dA*d[5mC]*dA*eA*eT*eG*e[5mC]*eT) [compound 771772]	27%	–	–
771774 (antisense eG*eA*eA*eA*eA*dA*d[5mC]*dA*dG*dG*dT*dA*dG*dA*dA*eA*eT*eA*eG*eG) [compound 771774]	14%	–	–
